Assay results as given in PMC3014449 (Molecular immunology, 2010).

Test system: classical pathway activation of complement in human serum
Assay: Inhibition of complement activation
Type: biochemical
Conditions: NA: not active at the highest concentrations tested; for IC50: complement inhibition assay, initiation via the classical pathway, human serum; for IC50 fold change: relative to peptide 1

| Substance | IC50 | IC50 fold change |
| --- | --- | --- |
| Ac-I[C(NMe)VYQDWGAHRC]T-NH2 [Peptide 3] | completely inactive | – |
| Ac-I[CV(NMe)YQDWGAHRC]T-NH2 [Peptide 4] | completely inactive | – |
| Ac-I[CVYQDWGA(NMe)HRC]T-NH2 [Peptide 10] | 94 µM | 0.03 |
| Ac-I[CVYQDWG(NMe)AHRC]T-NH2 [Peptide 9] | completely inactive | – |
| Ac-I[CVYQDWGAHR(NMe)C]T-NH2 [Peptide 12] | 154 µM | 0.02 |

The next lines start with the values.

| IC50 | IC50 fold change | Substance |
| --- | --- | --- |
| 44 µM | 0.06 | Ac-I[CVYQ(NMe)DWGAHRC]T-NH2 [Peptide 6] |
| 1.43 µM | 1.7 | Ac-I[CVYQDW(NMe)GAHRC]T-NH2 [Peptide 8] |
| 32 µM | 0.08 | Ac-I[CVYQDWGAH(NMe)RC]T-NH2 [Peptide 11] |
| 33 µM | 0.07 | Ac-I[CVY(NMe)QDWGAHRC]T-NH2 [Peptide 5] |
| 25 µM | 0.1 | Ac-I[CVYQD(NMe)WGAHRC]T-NH2 [Peptide 7] |
